In patent publication US20120322824A1, “Cocaine Antagonist/Antidepressant Pharmaceutical Preparations” (priority 2011, published 2012):
Where two headings read alike, the source gives them in different places.

What was measured:
mice [1] = assay: tail suspension test (TST); format: in vivo
Description: Referring now to FIGS. 5a-d, the tail suspension test (TST) and forced swim test (FST) are well-established, prototypical rodent models of learned helplessness. […] These assays are based on the premise that helpless or “depressed” animals struggle less to escape the mild but inescapable stress of being suspended or being immersed in room temperature water. […] In the TST, standard laboratory tape is used to immobilize an animal by its tail to a fixed support approximately 10.5 inches above a surface. The duration of the test is six minutes during which time animal movement is videotaped and later scored for immobility time (in sec) by a blinded observer. Similarly, in the FST animals are immersed in approximately 10 cm of 25° C. water in a 20 cm×13 cm glass cylinder. Animals were tested for 5 min and behavior was videotaped and scored for immobility time (sec) by a blinded observer.

mice [2] = assay: open field test, time spent in center; format: in vivo; settings: FIG. 3
Description: Anxiety disorders are often co-morbid with depression and antidepressant drugs are used in the treatment of anxiety. Tests for anxiety in rodents, such as the open field test, make use of the aversion of the animals for exposed locations. Treatment with anxiolytics such as diazepam or fluoxetine increases the amount of time an animal will spend in the center of the open field. We used the Opto-Varimax 4 Activity Analyzer to assess the time animals spent in the center of the open field vs. the periphery after treatment with MI-4. Data were measured as time spent in center (TIC).

[3] = biological target: serotonin (5-HT) transporter (Homo sapiens, UniProt P31645); assay: in vitro binding affinity, serotonin transporter; settings: in vitro studies
Sequence of serotonin (5-HT) transporter (P31645 whole entry): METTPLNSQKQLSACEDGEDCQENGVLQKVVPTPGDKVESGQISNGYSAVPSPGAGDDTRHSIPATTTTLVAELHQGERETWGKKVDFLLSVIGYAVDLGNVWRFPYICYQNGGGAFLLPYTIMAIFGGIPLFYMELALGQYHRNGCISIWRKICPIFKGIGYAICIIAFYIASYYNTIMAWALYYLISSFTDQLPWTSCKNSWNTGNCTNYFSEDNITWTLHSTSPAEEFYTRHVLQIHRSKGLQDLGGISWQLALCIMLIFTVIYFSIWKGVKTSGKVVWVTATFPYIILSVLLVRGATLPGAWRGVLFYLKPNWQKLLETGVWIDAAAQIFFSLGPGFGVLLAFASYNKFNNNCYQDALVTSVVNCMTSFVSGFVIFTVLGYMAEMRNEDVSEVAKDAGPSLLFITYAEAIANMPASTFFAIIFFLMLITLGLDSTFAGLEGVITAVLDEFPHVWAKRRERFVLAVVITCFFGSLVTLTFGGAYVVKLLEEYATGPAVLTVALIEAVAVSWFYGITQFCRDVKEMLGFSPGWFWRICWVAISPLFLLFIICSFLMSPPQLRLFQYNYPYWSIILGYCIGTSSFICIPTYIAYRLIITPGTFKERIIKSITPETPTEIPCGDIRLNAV

[4] = biological target: noreinephrine (NE) transporter (Homo sapiens, UniProt P23975); assay: in vitro binding affinity, norepinephrine transporter; settings: in vitro studies
Sequence of noreinephrine (NE) transporter (P23975 whole entry): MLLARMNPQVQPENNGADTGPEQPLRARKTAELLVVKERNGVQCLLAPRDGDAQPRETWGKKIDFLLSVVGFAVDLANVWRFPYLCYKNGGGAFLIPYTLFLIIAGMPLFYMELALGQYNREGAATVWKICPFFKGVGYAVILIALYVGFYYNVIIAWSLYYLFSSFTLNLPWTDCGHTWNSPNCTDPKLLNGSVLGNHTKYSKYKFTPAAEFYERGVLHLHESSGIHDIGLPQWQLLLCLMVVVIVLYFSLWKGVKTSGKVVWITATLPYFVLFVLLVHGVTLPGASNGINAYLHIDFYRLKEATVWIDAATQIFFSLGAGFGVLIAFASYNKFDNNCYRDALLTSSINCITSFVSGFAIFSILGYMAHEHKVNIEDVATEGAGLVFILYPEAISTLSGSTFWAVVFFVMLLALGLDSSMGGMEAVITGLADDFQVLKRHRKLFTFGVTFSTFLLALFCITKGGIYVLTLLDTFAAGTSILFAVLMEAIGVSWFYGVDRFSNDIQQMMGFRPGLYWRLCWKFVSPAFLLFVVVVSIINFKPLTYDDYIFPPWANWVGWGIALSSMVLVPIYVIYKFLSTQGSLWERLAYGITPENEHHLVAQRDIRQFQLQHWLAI

rodents = settings: doses less than 100 mg/kg, i.p.; cited from earlier work
mice [5] = assay: locomotor activity (Opto-Varimax 4 Activity Analyzer); format: in vivo
Experimental: Referring now to FIGS. 2a-d, locomotor activity was assessed in a non-invasive manner using a Opto-Varimax 4 Activity Analyzer (Columbus Instruments, Columbus, Ohio) that measures animal activity in a cage intersected with photocells projecting infrared beams 2.5 cm apart and 2 cm above the floor. After a brief habituation period, animals were treated with either sterile water as vehicle or MI-4 and activity was measured for 20 min.

mice [6] = assay: conditioned place preference assay (CPP); format: in vivo
Experimental: The conditioned place preference assay (CPP) is one test commonly used to show the ability of an antagonist to block rewarding effects in mice. Referring now to FIGS. 1a-b, according to the CPP test mice are placed in an apparatus with two chambers that differ in both visual and tactile cues. Over the course of a one-week training period, a rewarding drug (e.g.—cocaine) is administered once daily exclusively in one chamber so as to allow animals to associate the cues of that chamber with the drug. Sterile water is administered once daily while the animals occupy the opposite chamber to control for non-drug effects. At the conclusion of the training period, animals are allowed free access to both chambers and the time spent in each chamber is measured electronically. It is well known that addictive substances increase the amount of time animals spend in the drug-paired chamber, in the absence of any intervention.
Moreover, additional testing was performed to control for effects of MI-4 on general behavioral activity, an essential consideration when interpreting results from locomotor-based behavioral paradigms such as the CPP test.

[7] = biological target: dopamine (DA) transporter (Homo sapiens, UniProt Q01959); assay: in vitro binding affinity, dopamine transporter; settings: in vitro studies
Sequence of dopamine (DA) transporter (Q01959 whole entry): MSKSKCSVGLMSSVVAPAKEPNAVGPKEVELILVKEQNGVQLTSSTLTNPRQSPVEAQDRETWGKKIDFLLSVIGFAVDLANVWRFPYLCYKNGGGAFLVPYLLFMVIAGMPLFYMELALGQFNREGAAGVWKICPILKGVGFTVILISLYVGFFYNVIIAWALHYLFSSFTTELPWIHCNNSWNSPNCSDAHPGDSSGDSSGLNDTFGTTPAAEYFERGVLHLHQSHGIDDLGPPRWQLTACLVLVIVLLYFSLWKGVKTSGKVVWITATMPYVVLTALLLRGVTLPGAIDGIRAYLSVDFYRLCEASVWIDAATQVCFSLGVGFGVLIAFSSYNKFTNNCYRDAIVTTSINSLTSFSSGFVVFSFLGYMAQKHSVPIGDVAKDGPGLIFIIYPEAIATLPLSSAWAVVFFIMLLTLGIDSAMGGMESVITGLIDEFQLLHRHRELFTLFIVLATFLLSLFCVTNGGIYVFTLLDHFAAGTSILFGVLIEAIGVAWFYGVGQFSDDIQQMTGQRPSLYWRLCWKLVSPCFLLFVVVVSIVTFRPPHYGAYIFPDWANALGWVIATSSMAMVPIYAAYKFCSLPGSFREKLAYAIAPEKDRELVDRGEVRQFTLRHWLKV

[8] = human subjects, cited from earlier work
[9] = intravenous administration for up to 72 hours

## C[C@@H](CN1CCC(Cc2ccccc2)CC1)[C@@H](O)c1ccc(O)cc1 (relative stereo) [MI-4, ([R-(R*,S*)]-α-(4-Hydroxyphenyl)-β-methyl-4-(phenylmethyl)-1-piperidinepropanol]
Mice [1]; six minute test, FIG. 5a, comparable in effect to fluovoxamine and desipramine
  immobility time in the TST: dose-dependent reduction in immobility time
Mice [2]; 10 mg/kg
  time in center in the open field: decreased time in center
Mice [2]
  time spent in center (TIC) in the open field: did not significantly increase
[3]
  binding affinity for the serotonin (5-HT) transporter: physiologically-relevant binding affinity
[4]
  binding affinity for the noreinephrine (NE) transporter: physiologically-relevant binding affinity
rodents
  adverse effects (tolerability): no observable adverse effects
Mice [5]; MI-4 vs sterile water vehicle, 20 min, FIG. 2a
  distance traveled: only minor effects
Mice [5]; MI-4 vs sterile water vehicle, 20 min, FIG. 2b
  ambulatory time: only minor effects
Mice [5]; MI-4 vs sterile water vehicle, 20 min, FIG. 2c
  stereotopy time (grooming behavior): did not significantly alter
Mice [5]; MI-4 vs sterile water vehicle, 20 min, FIG. 2d
  resting time: only minor effects
Mice [6]; MI-4 10/mg/kg i.p. co-administered with cocaine 10 mg/kg i.p., FIG. 1b
  effect of cocaine on time in drug-paired chamber when co-administered: reduced by half
Mice [6]; administered alone at the same dose (10/mg/kg, i.p.)
  rewarding effects when administered alone (time spent in the MI-4-paired chamber): did not exhibit rewarding effects
[7]
  binding affinity for the dopamine (DA) transporter: physiologically-relevant binding affinity

## Oc1ccc(C2=CCN(C[C@H](O)COCc3ccccc3Cl)CC2)cc1 [MI-17, reference compound]
Mice [1]; 2% DMSO vehicle, FIG. 5c
  immobility times in the TST: dose-dependently increased
Mice [1]; 55% DMSO vehicle in the oxalate form, FIG. 5d
  immobility times in the TST: dose-dependently increased
Mice [5]; beginning at 3 mg/kg but mostly at 10 mg/kg, FIG. 4a
  distance traveled: dramatically decreased
Mice [5]; beginning at 3 mg/kg but mostly at 10 mg/kg, FIG. 4b
  resting time: dramatically increasing
Mice [5]; beginning at 3 mg/kg but mostly at 10 mg/kg, FIG. 4c
  stereotopy time: dramatically decreased
Mice [5]; beginning at 3 mg/kg but mostly at 10 mg/kg, FIG. 4d
  ambulatory time: dramatically decreased

## C[C@@H]([C@@H](O)c1ccc(O)cc1)N1CCC(O)(c2ccccc2)CC1 [traxoprodil]
[8]; extensive metabolizers (EM)
  oral bioavailability: 23-62%
[8]; [9]
  adverse effects: no observable adverse effects
  sustained levels in the cerebral spinal fluid: > 200 ng/mL
  sustained levels in the plasma: > 200 ng/mL
[8]; poor metabolizers (PM)
  oral bioavailability: approx. 80%
